In patent US8586747B2, “3,3-dimethyl tetrahydroquinoline derivatives” (Hoffmann-La Roche Inc., priority 2010, dated 2013):

Tested on: AMP-activated protein kinase (AMPK)
Assay: ADP Quest assay for AMPK activators
Assay type: biochemical
Set-up: key: fold AMPK activation with vs without activator at 30 µM
Settings: fold of AMPK activation to phosphorylate SAMS peptide without and with an activator at the concentration of 30 µM
Procedure, shortened: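 E30, the fold increase in SAMS peptide phosphorylation at 30 µM compound relative to no activator, is derived from kinetic fluorescent detection of ADP (ex 530, em 590 nm). AMPK starts the ATP-containing reaction at room temperature; compounds span […] by 2-fold steps, AMP serves as reference.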

Row | E30 | SMILES
1 | 1.43 | CN1CCC(NC(=O)c2cccc(C3Nc4c(cccc4C(=O)O)CC3(C)C)c2)C1 (stereo not shown) [Example 224, 3,3-Dimethyl-2-(3-(1-methylpyrrolidin-3-ylcarbamoyl)phenyl)-1,2,3,4-tetrahydroquinoline-8-carboxylic acid]
2 | 1.64 | CN1CCC(NC(=O)c2cccc(C3Nc4ccc(Cl)cc4CC3(C)C)c2)C1 (stereo not shown) [Example 225, 3-(6-Chloro-3,3-dimethyl-1,2,3,4-tetrahydroquinolin-2-yl)-N-(1-methylpyrrolidin-3-yl)benzamide]
3 | 1.32 | CNS(=O)(=O)c1ccc(C2Nc3ccc(C(=O)O)cc3CC2(C)C)cc1 (stereo not shown) [Example 226, 3,3-Dimethyl-2-(4-(N-methylsulfamoyl)phenyl)-1,2,3,4-tetrahydroquinoline-6-carboxylic acid]
4 | 1.2 | CC1(C)Cc2cc(C(=O)O)ccc2NC1c1cccc(S(=O)(=O)N2CCCC2)c1 (stereo not shown) [Example 227, 3,3-Dimethyl-2-(3-(pyrrolidin-1-ylsulfonyl)phenyl)-1,2,3,4-tetrahydroquinoline-6-carboxylic acid]
5 | 1.38 | CNS(=O)(=O)c1cccc(C2Nc3ccc(C(=O)O)cc3CC2(C)C)c1 (stereo not shown) [Example 228, 3,3-Dimethyl-2-(3-(N-methylsulfamoyl)phenyl)-1,2,3,4-tetrahydroquinoline-6-carboxylic acid]
6 | 1.33 | CN1CCC(NS(=O)(=O)c2cccc(C3Nc4ccc(C(=O)O)cc4CC3(C)C)c2)C1 (stereo not shown) [Example 229, 3,3-Dimethyl-2-(3-(N-(1-methylpyrrolidin-3-yl)sulfamoyl)phenyl)-1,2,3,4-tetrahydroquinoline-6-carboxylic acid]
7 | 1.27 | CC1(C)Cc2cc(C(=O)O)ccc2NC1c1cccc(S(=O)(=O)Nc2ccccc2)c1 (stereo not shown) [Example 230, 3,3-Dimethyl-2-(3-(N-phenylsulfamoyl)phenyl)-1,2,3,4-tetrahydroquinoline-6-carboxylic acid]
8 | 1.31 | CN(C)S(=O)(=O)c1cccc(C2Nc3ccc(C(=O)O)cc3CC2(C)C)c1 (stereo not shown) [Example 231, 2-(3-(N,N-dimethylsulfamoyl)phenyl)-3,3-dimethyl-1,2,3,4-tetrahydroquinoline-6-carboxylic acid]
9 | 1.28 | CC1(C)Cc2cc(C(=O)O)ccc2NC1c1ccccc1NC(=O)c1ccccn1 (stereo not shown) [Example 232, 3,3-Dimethyl-2-(2-(picolinamido)phenyl)-1,2,3,4-tetrahydroquinoline-6-carboxylic acid]
10 | 1.29 | CC(C)(Oc1cccc(C2Nc3ccc(C(=O)O)cc3CC2(C)C)c1)C(=O)O (stereo not shown) [Example 233, 2-(3-(2-Carboxypropan-2-yloxy)phenyl)-3,3-dimethyl-1,2,3,4-tetrahydroquinoline-6-carboxylic acid]
